{"source": "patent US10287616B2", "about": "“Label free biosensors, gram-negative bacteria detection, and real-time and end point determination of antibiotic effects” (priority 2015, dated 2019)", "key": {"E. coli W1485 [1]": {"test_system": "E. coli W1485", "details": "for ΔR (Ω) / ΔR/R0 (%) / bacterial (LPS) binding reduced to, frequency shift normalized to control: 18 hours", "experimental": "The gold QCM electrode consisted of a thin AT-cut quartz crystal wafer with vapor deposited gold electrode on each side (10 MHz, non-polished with 1000 A gold, geometric area is 0.22 cm2, International Crystal Company). For all QCM test, the gold electrode was mounted on the side of a KeI-F cell chamber. Frequency monitoring was performed using a Maxtek RQCM quartz crystal microbalance research instrument. Baseline was recorded in 1 mL of 10 mM HEPES buffer containing 1 mM Ca^2+ and 1 mM Mn^2+. Each of the bacterial samples to be analyzed was then added into the detection sensor cell after stabilization of resonance frequency (shift less than 1 Hz·min-1). A small magnetic stir bar was used to increase the mass transfer through convection. The frequency changes (ΔF) of the QCM were monitored using a network/spectrum/impedance analyzer (Agilent 4395A) controlled by a PC via an Intel card.\n(§1) In the end point measurement, four samples containing 2×10^5 cells/mL of E. coli obtained from log phase in fresh LB culture were prepared. […] The four samples were incubated for 18 hours, 37° C., 280 rpm on an orbital environmental shaker. Finally, 1 μL of the E. coli culture from the each prepared sample was introduced to the Con A biosensor in 1 mL of 10 mM HEPES buffer (pH 7.4) for QCM and electrochemical biosensor measurements, respectively. The sample without addition of any antibiotic was used as control.\n(§2) The concentrations used were based on the literature and current clinically used dosages. The sample without any antibiotic was used as a control. As mentioned above, E. coli W1485 was used as the model Gram-negative bacterial analyte. E. coli W1485 is a “semirough” bacterial strain in which the intact LPS core is capped by a single O-antigen subunit consisting of glucose, N-acetylglucosamine, galactose, and rhamnose in the ratio 1.8:1.0:0.7:0.6, which has been confirmed by the sodium dodecyl sulfate polyacrylamide gel electrophoresis (SDS-PAGE) method. Con A binds specifically at α-D-mannosyl and α-D-glucosyl residues (two hexoses differing only by the alcohol on carbon 2) in the terminal position of ramified structures from β-glycans (reach in α-mannose, or hybrid and biantennary glycanes complexes).\nHere the QCM frequency shift is because of the mass loading on the QCM surface due to bacterial adhesion and the change of damping resistance is a result of increasing softness of the interface which causes the damping of the oscillation wave."}, "E. coli W1485 [2]": {"test_system": "E. coli W1485", "test": "End point antibiotic susceptibility test with Con A biosensor, square wave voltammetry readout", "format": "cell-based, Escherichia coli", "details": "18 hours, FIG. 24B inset", "experimental": "as §1, §2"}, "E. coli W1485 [3]": {"test_system": "E. coli W1485", "test": "Real time experiment, SWV signal after 3 hours of incubation with antibiotic", "format": "cell-based, Escherichia coli", "details": "30 mg/L antibiotic; for SWV sensor signal: without antibiotic 0.37 μA", "experimental": "Electrochemical measurements were performed on a GAMRY 4-channel electrochemical workstation. A three-electrode electrochemical cell composed of a Con A sensor as working electrode, platinum wire as counter electrode and Ag/AgCl (saturated KCl) electrode as reference electrode, was used. Square wave voltammetric measurements were performed under ambient conditions (21-23° C.). Each measurement had been repeated at least three times with independently prepared Con A sensors.\nFor the real time measurements, Con A sensor was mounted in a biosensor cell containing 1 mL of 10 mM HEPES buffer (pH 7.4). Real time QCM measurements were obtained for each experimental step. First, 1 μL of 5×10^8 cells/mL E. coli obtained from the stationary phase was added into the biosensor cell. When frequency reached a constant value, it was washed with 1 mL of 10 mM HEPES buffer to remove the unbound E. coli. […] The frequency changes vs time and the damping resistance vs time were recorded by QCM.\nDifferent types of antibiotics have differing abilities to alter the LPS properties and subsequent reduction in their binding. This can be used as an indicator for the antibiotic effects for killing the bacteria or inhibiting their growth. The biosensor ability to quantitatively measure these parameters real time was tested. For that purpose, the Con A sensor was exposed to 1 μL of 5×10^8 cells/mL E. coli to capture the bacteria via Con A-LPS binding. The unbound E. coli was removed by washing with 1 mL of 10 mM HEPES buffer. […] In the three separate measurements shown in FIG. 25A, it can be clearly seen that the initial parts of the curves which are related to E. coli immobilization are almost coinciding to each other. This real time QCM measurement also allows us to observe the reproducibility of the sensor performance. In the last parts of the curves, when different antibiotics are added, their variable effects in killing the bacteria and reducing their binding caused a variable shift of the frequency. This shift was opposite in direction to what was obtained by bacterial addition which is indicative of reduced binding. These responses (shown in the inset) provided the quantitative details of this effect. […] Due to real time nature of this experiment, the frequency and damping resistance change were much smaller than that of FIGS. 24A and 24B. This confirms that the antibiotic drug effect on LPS is a slow process but the high sensitivity sensor disclosed herein allows such subtle changes to be measured. Moreover, the results of the QCM and Electrochemical measurements are validating each other again. […]"}, "E. coli": {"test_system": "E. coli", "details": "cited from earlier work; for Previously Reported Minimum Inhibitory Concentration (MIC, mg/L): different strains"}}, "note": "Where two headings read alike, the source gives them in different places."}
{"smiles": "CN(C)[C@@H]1C(O)=C(C(N)=O)C(=O)[C@@]2(O)C(O)=C3C(=O)c4c(O)cccc4[C@@](C)(O)[C@H]3C[C@@H]12", "note": "[tetracycline]", "values": [{"measurement": "ΔR (Ω)", "setting": "E. coli W1485 [1]; 10 mg/L antibiotic, FIG. 24A", "value": "7.2 Ω"}, {"measurement": "ΔR/R0 (%)", "setting": "E. coli W1485 [1]; 10 mg/L antibiotic, FIG. 24A", "value": 2.3, "unit": "%"}, {"measurement": "increase of the SWV signal as compared to control", "setting": "E. coli W1485 [2]; 10 mg/L antibiotic", "value": 2, "unit": "folds"}, {"measurement": "SWV sensor signal", "setting": "E. coli W1485 [3]", "value": 0.65, "unit": "μA"}]}
{"smiles": "O=C(O)c1cn(C2CC2)c2cc(N3CCNCC3)c(F)cc2c1=O", "note": "[ciprofloxacin]", "values": [{"measurement": "ΔR (Ω)", "setting": "E. coli W1485 [1]; 0.1 mg/L antibiotic, FIG. 24A", "value": "8 Ω"}, {"measurement": "ΔR/R0 (%)", "setting": "E. coli W1485 [1]; 0.1 mg/L antibiotic, FIG. 24A", "value": 2.6, "unit": "%"}, {"measurement": "increase of the SWV signal as compared to control", "setting": "E. coli W1485 [2]; 0.1 mg/L antibiotic", "value": 7.2, "unit": "folds"}, {"measurement": "SWV sensor signal", "setting": "E. coli W1485 [3]", "value": 0.89, "unit": "μA"}, {"measurement": "Previously Reported Minimum Inhibitory Concentration (MIC, mg/L)", "setting": "E. coli", "value": "0.0075 to 0.015", "unit": "mg/L"}]}
{"smiles": "CO/N=C(\\C(=O)N[C@@H]1C(=O)N2C(C(=O)O)=C(CSc3nc(=O)c(=O)[nH]n3C)CS[C@H]12)c1csc(N)n1", "note": "[ceftriaxone]", "values": [{"measurement": "bacterial (LPS) binding reduced to, frequency shift normalized to control", "setting": "E. coli W1485 [1]; 0.1 mg/L antibiotic", "value": 27, "unit": "%"}, {"measurement": "ΔR (Ω)", "setting": "E. coli W1485 [1]; 0.1 mg/L antibiotic, FIG. 24A", "value": "6 Ω"}, {"measurement": "ΔR/R0 (%)", "setting": "E. coli W1485 [1]; 0.1 mg/L antibiotic, FIG. 24A", "value": 2.0, "unit": "%"}, {"measurement": "bacterial (LPS) binding reduced to, frequency shift normalized to control", "setting": "E. coli W1485 [1]; 0.1 mg/L antibiotic, listed as Ceftriaxone", "value": 27, "unit": "%"}, {"measurement": "ΔF (Hz)", "setting": "E. coli W1485 [1]; log phase E. coli incubated 18 hours, 37° C. with 0.1 mg/L antibiotic, FIG. 24A", "value": 87, "unit": "Hz"}, {"measurement": "increase of the SWV signal as compared to control", "setting": "E. coli W1485 [2]; 0.1 mg/L antibiotic", "value": 4.8, "unit": "folds"}, {"measurement": "SWV sensor signal, fold of signal without antibiotic", "setting": "E. coli W1485 [3]", "value": 2.50, "unit": "fold"}, {"measurement": "SWV sensor signal", "setting": "E. coli W1485 [3]", "value": 0.92, "unit": "μA"}, {"measurement": "MIC", "setting": "E. coli; E. coli (47)", "value": "0.0125 to 25", "unit": "µg/mL"}, {"measurement": "MIC", "setting": "E. coli; E. coli (305)", "value": "0.06 to 8", "unit": "µg/mL"}, {"measurement": "Previously Reported Minimum Inhibitory Concentration (MIC, mg/L)", "setting": "E. coli", "value": "0.024 to 0.195", "unit": "mg/L"}]}
